Literature values as cited in patent US6380175B1, “Method for enhancement of delivery of THC by the administration of its prodrugs via the nasal route” (New Millennium Pharmaceutical Research, Inc., priority 1999, dated 2002).

Conditions: room temperature

For `CCCCCc1cc(O)c2c(c1)OC(C)(C)C1CCC(C)=CC21` (stereo not shown) [THC, Δ-9-tetrahydrocannabinol], the aqueous solubility is listed as “very poor aqueous solubility”.
